Experimental data published in patent publication US20240002350A1, “PROTEIN AND LIPID THERAPEUTIC TARGETS” (UNIVERSITY OF PITTSBURGH-OF THE COMMONWEALTH SYSTEM OF …, priority 2020, published 2024).

Tested on: 15LOX/PEBP1
Test: Potency of 15LOX/PEBP1 inhibitors with anti-ferroptotic effect (Table 1)
Format: cell-based
Text: Development and testing of new compounds that inhibit 15LOX/PEBP1 complex activity. A combination of computational and experimental studies are used. […] Computer modeling considers specific features of organization of 15LOX/PEBP1 complexes and positioning of AA-PE as well as regio-specific oxygenation of AA-residues at 15th carbon. […] It has been shown that: i) binding interface of 15LOX in 15LOX/PEBP1 complex includes a helix on 15LOX (α2) and kinase binding epitope (D144, H145, R146) on PEBP1 (FIG. 8); and ii) interfacial interactions play a pivotal role in allosterically altering conformational dynamics of 15LOX in complex, and its substrate specificity. Analysis of change in access to catalytic site upon PEBP1 binding, using elastic network models indicates needed sites at 15LOX/PEBP1 binding interface. Dynamics simulations are also performed, for 15LOX alone and 15LOX/PEBP1 complex. An effective inhibitor, NCG-01, with in vivo activity has been indicated. Several other 15LOX/PEBP1 inhibitors with anti-ferroptotic effect (FIG. 9) have been identified. To test the effectiveness of compounds identified from the computational screen, RSL3 and mechanical stretch models with LDH and PI assays as a primary outcome are performed. The compounds that inhibit cell death by at least 50% are then evaluated for their effects on AA-PE and AA oxidation by 15LOX/PEBP1 complex and 15LOX alone, respectively, by LC-MS. Evaluation of the effect of compounds in suppressing AA-PE-OOH formation in cells upon proferroptotic stimuli is also performed.

SMILES	Potency
NC(=O)c1ccc(CSc2nc(-c3ccccc3)cn2-c2cccc(F)c2)cc1 [Compound 50, 4-(((1-(3-fluorophenyl)-4-phenyl-1H-imidazol-2-yl)thio)methyl)benzamide]	+ (+ > 1 μM)
Fc1cccc(-n2cc(-c3ccccc3)nc2SCc2ccc(OC(F)F)cc2)c1 [Compound 51, 2-((4-(difluoromethoxy)benzyl)thio)-1-(3-fluorophenyl)-4-phenyl-1H-imidazole]	+ (+ > 1 μM)
Fc1cccc(-n2cc(-c3ccccc3)nc2SCc2ccc(C(F)F)cc2)c1 [Compound 52, 2-((4-(difluoromethyl)benzyl)thio)-1-(3-fluorophenyl)-4-phenyl-1H-imidazole]	+ (+ > 1 μM)
CC(C)(C)OC(=O)Nc1ccc(CSc2nc(-c3ccccc3)cn2-c2cccc(F)c2)cc1 [Compound 53, tert-butyl (4-(((1-(3-fluorophenyl)-4-phenyl-1H-imidazol-2-yl)thio)methyl)phenyl)carbamate]	+ (+ > 1 μM)
CC(Sc1nc(-c2ccccc2)cn1-c1cccc(F)c1)c1ccc(C(F)(F)F)cc1 (stereo not shown) [Compound 54, 1-(3-fluorophenyl)-4-phenyl-2-((1-(4-(trifluoromethyl)phenyl)ethyl)thio)-1H-imidazole]	+ (+ > 1 μM)
N#Cc1ccc(CSc2nc(-c3ccccc3)cn2-c2cccc(F)c2)cc1 [Compound 55, 4-(((1-(3-fluorophenyl)-4-phenyl-1H-imidazol-2-yl)thio)methyl)benzonitrile]	+ (+ > 1 μM)
N#Cc1ccc(CNc2nc(-c3ccccc3)cn2-c2cccc(F)c2)cc1 [Compound 56, 4-(((1-(3-fluorophenyl)-4-phenyl-1H-imidazol-2-yl)amino)methyl)benzonitrile]	++ (++ = 101-1000 nM)
Cc1cccc(CNc2nc(-c3ccccc3)cn2-c2cccc(F)c2)c1 [Compound 57, 1-(3-fluorophenyl)-N-(3-methylbenzyl)-4-phenyl-1H-imidazol-2-amine]	++ (++ = 101-1000 nM)
Fc1cccc(-n2cc(-c3ccccc3)nc2NCc2cccc(C(F)(F)F)c2F)c1 [Compound 58, N-(2-fluoro-3-(trifluoromethyl)benzyl)-1-(3-fluorophenyl)-4-phenyl-1H-imidazol-2-amine]	++ (++ = 101-1000 nM)
Fc1cccc(-n2cc(-c3ccccc3)nc2NCc2ccc(Cl)cc2)c1 [Compound 59, N-(4-chlorobenzyl)-1-(3-fluorophenyl)-4-phenyl-1H-imidazol-2-amine]	++ (++ = 101-1000 nM)
Fc1cccc(-n2cc(-c3ccccc3)nc2NCc2ccccc2)c1 [Compound 61, N-benzyl-1-(3-fluorophenyl)-4-phenyl-1H-imidazol-2-amine]	++ (++ = 101-1000 nM)
COc1cccc(CNc2nc(-c3ccccc3)cn2-c2cccc(F)c2)c1 [Compound 62, 1-(3-fluorophenyl)-N-(3-methoxybenzyl)-4-phenyl-1H-imidazol-2-amine]	++ (++ = 101-1000 nM)
Fc1cccc(-n2cc(-c3ccccc3)nc2NCc2cccc(C(F)(F)F)c2)c1 [Compound 63, 1-(3-fluorophenyl)-4-phenyl-N-(3-(trifluoromethyl)benzyl)-1H-imidazol-2-amine]	++ (++ = 101-1000 nM)
Fc1cccc(-n2cc(-c3ccccc3)nc2NCc2ccc(F)c(F)c2)c1 [Compound 64, N-(3,4-difluorobenzyl)-1-(3-fluorophenyl)-4-phenyl-1H-imidazol-2-amine]	++ (++ = 101-1000 nM)
Fc1cccc(-n2cc(-c3ccc(Br)cc3)nc2SCc2ccc(C3(C(F)(F)F)N=N3)cc2)c1 [Compound 65, 4-(4-bromophenyl)-1-(3-fluorophenyl)-2-((4-(3-(trifluoromethyl)-3H-diazirin-3-yl)benzyl)thio)-1H-imidazole]	+ (+ > 1 μM)
Fc1cccc(-n2cc(-c3ccccc3)nc2NCc2ccc(C(F)(F)F)c(Br)c2)c1 [Compound 66, N-(3-bromo-4-(trifluoromethyl)benzyl)-1-(3-fluorophenyl)-4-phenyl-1H-imidazol-2-amine]	++ (++ = 101-1000 nM)
